# Measurements as given in the supplement of paper PMC10307832.
# Experiments:
# Experiment in all cases: relative viability (nuclei count vs DMSO), 5 days (fraction); higher = more cells survive
# MK-8033 + Luminespib = compound: Cn1cc(-c2cnc3ccc4ccc(CS(=O)(=O)NCc5ccccn5)cc4c(=O)c3c2)cn1 [MK-8033] + CCNC(=O)c1noc(-c2cc(C(C)C)c(O)cc2O)c1-c1ccc(CN2CCOCC2)cc1 [Luminespib] (partner 0.01 µM)
# How it was run: (§1)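 Lung cancer cell lines were pin-tool dosed in 1536-well plates on the day after seeding, with either a lone drug or a fixed anchor-drug dose plus five library-drug doses (not always all listed) in √10 steps. Nuclei were counted on 4× images after 5 days. Relative viability is the ratio of treated-well to vehicle-well nuclei counts, with each value a median of duplicate plates.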
# MK-8033 + Pemetrexed = compound: Cn1cc(-c2cnc3ccc4ccc(CS(=O)(=O)NCc5ccccn5)cc4c(=O)c3c2)cn1 [MK-8033] + Nc1nc2[nH]cc(CCc3ccc(C(=O)N[C@@H](CCC(=O)O)C(=O)O)cc3)c2c(=O)[nH]1 [Pemetrexed] (partner 0.2 µM)
# How it was run: as §1
# MK-8033 + Crizotinib = compound: Cn1cc(-c2cnc3ccc4ccc(CS(=O)(=O)NCc5ccccn5)cc4c(=O)c3c2)cn1 [MK-8033] + C[C@@H](Oc1cc(-c2cnn(C3CCNCC3)c2)cnc1N)c1c(Cl)ccc(F)c1Cl [Crizotinib] (partner 1 µM)
# How it was run: as §1
# Irinotecan + Crizotinib = compound: CCc1c2c(nc3ccc(OC(=O)N4CCC(N5CCCCC5)CC4)cc13)-c1cc3c(c(=O)n1C2)COC(=O)[C@]3(O)CC [Irinotecan] + C[C@@H](Oc1cc(-c2cnn(C3CCNCC3)c2)cnc1N)c1c(Cl)ccc(F)c1Cl [Crizotinib] (partner 1 µM)
# How it was run: as §1
Cell Line,relative viability (MK-8033 + Luminespib; first compound 0.02 µM),relative viability (MK-8033 + Luminespib; first compound 0.06325 µM),relative viability (MK-8033 + Luminespib; first compound 0.2 µM),relative viability (MK-8033 + Luminespib; first compound 0.6325 µM),relative viability (MK-8033 + Luminespib; first compound 2 µM),relative viability (MK-8033 + Pemetrexed; first compound 0.02 µM),relative viability (MK-8033 + Pemetrexed; first compound 0.06325 µM),relative viability (MK-8033 + Pemetrexed; first compound 0.2 µM),relative viability (MK-8033 + Pemetrexed; first compound 0.6325 µM),relative viability (MK-8033 + Pemetrexed; first compound 2 µM),relative viability (MK-8033 + Crizotinib; first compound 0.02 µM),relative viability (MK-8033 + Crizotinib; first compound 0.06325 µM),relative viability (MK-8033 + Crizotinib; first compound 0.2 µM),relative viability (MK-8033 + Crizotinib; first compound 0.6325 µM),relative viability (MK-8033 + Crizotinib; first compound 2 µM),relative viability (Irinotecan + Crizotinib; first compound 0.6325 µM),relative viability (Irinotecan + Crizotinib; first compound 2 µM),relative viability (Irinotecan + Crizotinib; first compound 6.325 µM),relative viability (Irinotecan + Crizotinib; first compound 20 µM)
NCI-H358,0.417,0.236,0.235,0.296,0.213,0.165,0.181,0.158,0.167,0.164,0.493,0.503,0.595,0.434,0.508,0.497,0.431,0.484,0.139
NCI-H441,0.403,0.375,0.352,0.336,0.305,0.246,0.274,0.254,0.266,0.255,0.753,0.646,0.681,0.778,0.691,0.577,0.314,0.257,0.286
NCI-H460,0.0295,0.038,0.0269,0.0415,0.0328,0.0659,0.0591,0.0606,0.0625,0.0649,0.949,0.793,0.879,0.822,0.844,0.709,0.239,0.0835,0.0573
NCI-H520,0.22,0.207,0.226,0.211,0.219,0.625,0.697,0.607,0.652,0.602,0.797,0.678,0.663,0.59,0.78,0.639,0.524,0.279,0.225
NCI-H596,1.02,0.987,0.802,1.01,0.946,0.463,0.436,0.489,0.506,0.53,0.913,0.941,0.921,0.991,1.01,0.945,0.924,0.741,0.68
NCI-H647,0.119,0.178,0.213,0.151,0.154,0.199,0.166,0.165,0.185,0.172,1.03,0.891,0.959,0.919,0.928,0.852,0.365,0.227,0.198
NCI-H650,0.827,0.787,0.819,0.833,0.769,0.982,0.955,0.863,0.933,0.83,0.648,0.753,1,0.778,0.712,0.543,0.436,0.258,0.235
NCI-H661,0.926,0.938,0.893,0.948,0.872,0.907,0.867,0.876,0.909,0.905,0.991,–,1.02,0.948,0.903,0.923,0.842,–,0.517
NCI-H838,0.248,0.292,0.335,0.296,0.273,0.249,0.246,0.227,0.27,0.22,0.807,0.757,0.884,0.804,0.787,0.769,0.679,0.365,0.276
NCI-H1355,0.695,0.686,0.607,0.74,0.646,1.03,0.996,0.965,1.05,1,1.07,0.988,1.03,1.05,1.02,0.896,0.407,0.234,0.233
NCI-H1437,1.11,1,1.05,1.08,1.04,0.295,0.281,0.308,0.319,0.308,1.04,0.723,0.545,0.877,0.918,0.962,0.664,0.323,0.24
NCI-H1563,0.491,0.589,0.541,0.483,0.539,0.736,0.695,0.738,0.69,0.794,0.918,0.813,0.773,0.93,0.812,0.865,0.882,0.865,0.344
NCI-H1650,0.193,0.205,0.204,0.203,0.181,0.429,0.332,0.457,0.39,0.336,0.997,0.867,0.996,0.919,0.832,0.918,1.23,0.391,0.179
NCI-H1651,1.02,0.846,0.733,0.853,0.874,0.633,0.561,0.56,0.685,0.582,0.852,0.832,0.846,0.938,0.862,–,0.693,0.479,0.135
NCI-H1666,1,0.987,0.979,1.03,0.924,0.784,0.775,0.915,0.788,0.772,0.909,0.942,0.982,0.999,1.01,0.617,0.464,0.47,0.357
NCI-H1734,0.173,0.177,0.176,0.182,0.17,0.423,0.403,0.393,0.398,0.431,0.682,0.547,0.645,0.508,0.595,0.618,0.336,0.226,0.177
NCI-H1755,0.371,0.387,0.411,0.282,0.467,0.481,0.394,0.383,0.336,0.375,0.811,0.782,0.878,0.847,0.803,0.712,0.497,0.332,0.451

Cell Line,relative viability (MK-8033 + Luminespib; first compound 0.02 µM),relative viability (MK-8033 + Luminespib; first compound 0.06325 µM),relative viability (MK-8033 + Luminespib; first compound 0.2 µM),relative viability (MK-8033 + Luminespib; first compound 0.6325 µM),relative viability (MK-8033 + Luminespib; first compound 2 µM),relative viability (MK-8033 + Pemetrexed; first compound 0.02 µM),relative viability (MK-8033 + Pemetrexed; first compound 0.06325 µM),relative viability (MK-8033 + Pemetrexed; first compound 0.2 µM),relative viability (MK-8033 + Pemetrexed; first compound 0.6325 µM),relative viability (MK-8033 + Pemetrexed; first compound 2 µM),relative viability (MK-8033 + Crizotinib; first compound 0.02 µM),relative viability (MK-8033 + Crizotinib; first compound 0.06325 µM),relative viability (MK-8033 + Crizotinib; first compound 0.2 µM),relative viability (MK-8033 + Crizotinib; first compound 0.6325 µM),relative viability (MK-8033 + Crizotinib; first compound 2 µM),relative viability (Irinotecan + Crizotinib; first compound 0.6325 µM),relative viability (Irinotecan + Crizotinib; first compound 2 µM),relative viability (Irinotecan + Crizotinib; first compound 6.325 µM),relative viability (Irinotecan + Crizotinib; first compound 20 µM)
NCI-H1792,0.383,0.34,0.442,0.217,0.273,0.789,0.64,0.62,0.69,0.872,1.02,0.959,0.982,0.828,1.03,0.918,1.05,0.536,0.239
NCI-H1915,0.728,0.8,0.676,0.827,0.668,0.51,0.491,0.497,0.472,0.428,0.935,0.896,0.802,0.885,0.911,0.417,0.369,0.178,0.227
NCI-H1944,0.742,0.62,0.708,0.719,0.653,0.703,0.478,0.676,0.583,0.613,1.12,–,1.02,1.06,1.11,0.561,0.323,0.231,0.254
NCI-H1975,0.195,0.24,0.176,0.203,0.15,0.263,0.259,0.276,0.281,0.288,0.896,0.924,0.934,1.06,0.952,0.914,1,0.401,0.329
NCI-H1993,0.733,0.838,0.827,0.964,0.73,0.537,0.58,0.498,0.575,0.46,0.734,0.658,0.836,0.668,0.819,0.897,0.656,0.671,0.664
NCI-H2009,0.987,0.921,0.978,0.999,1,1.01,1.01,0.923,1.08,0.997,1.08,1.07,0.579,1.11,1.03,0.912,0.857,0.233,0.224
NCI-H2023,0.758,0.652,0.652,0.693,0.634,0.21,0.211,0.216,0.22,0.222,0.674,0.559,0.554,0.554,0.586,0.676,0.532,0.205,0.0482
NCI-H2085,0.471,0.483,0.378,0.447,0.415,0.722,0.767,0.862,0.874,0.875,0.873,0.804,0.867,0.801,0.977,0.845,0.622,0.511,0.537
NCI-H2087,0.119,0.174,0.148,0.242,0.148,0.622,0.714,0.629,0.578,0.674,0.957,0.746,0.883,0.989,0.836,0.476,0.396,0.259,0.203
NCI-H2126,0.905,0.757,0.817,0.836,0.872,0.674,0.661,0.613,0.689,0.649,1.04,0.927,0.973,0.976,0.951,–,0.58,0.361,0.354
NCI-H2170,0.435,0.388,0.694,0.622,0.726,0.275,0.266,0.299,0.257,0.26,1.08,1.18,1.05,1.18,1.18,1.1,0.588,0.309,0.186
NCI-H2228,0.178,0.0977,0.163,0.161,0.208,0.274,0.343,0.365,0.308,0.325,0.373,0.372,0.508,0.387,0.362,0.597,0.518,0.39,0.433
NCI-H2347,0.362,0.277,0.473,0.408,0.556,0.462,0.423,0.434,0.356,0.415,0.752,0.667,0.665,0.618,0.823,0.571,0.476,0.556,0.494
NCI-H2405,0.711,0.614,0.65,0.64,0.814,1.04,1.01,0.963,1.06,1.11,0.809,0.783,0.842,0.871,0.811,0.788,0.779,0.355,0.274
NCI-H3122,0.0907,0.0983,0.0777,0.0917,0.0881,0.201,0.201,0.195,0.188,0.198,0.335,0.249,0.311,0.272,0.286,0.25,0.205,0.173,0.163
PC-3 [JPC-3],0.728,0.618,0.713,0.663,0.713,1.07,–,0.99,1.1,1.07,0.963,–,0.902,0.981,0.936,0.847,0.493,0.332,0.331
